Assay results published in BigSolDB 2.1.

CCOC(=O)c1ccc(N)cc1
solubility (mole fraction)
Details	in ethanol	in isobutanol	in isopentanol	in methanol	in n-butanol	in n-propanol
283.15 K	0.0522	0.0281	0.0335	0.0528	0.037	0.0441
287.15 K	0.0611	0.0328	0.0371	0.0629	0.0467	0.0521
291.15 K	0.0712	0.0392	0.0439	0.075	0.0562	0.0605
295.15 K	0.0831	0.048	0.0529	0.0863	0.0668	0.071
299.15 K	0.0982	0.0583	0.0632	0.103	0.0821	0.085
303.15 K	0.115	0.071	0.0757	0.12	0.0981	0.101
307.15 K	0.135	0.0879	0.0917	0.141	0.118	0.121
311.15 K	0.16	0.111	0.115	0.168	0.146	0.148
315.15 K	0.191	0.14	0.145	0.2	0.176	0.179
318.15 K	0.221	0.168	0.172	0.227	0.207	0.211
321.15 K	0.251	0.204	0.206	0.259	0.241	0.245
324.15 K	0.289	0.25	0.252	0.296	0.281	0.284
327.15 K	0.328	0.303	0.305	0.335	0.323	0.326
